In patent US20200178586A1, “PEPTIDE” (FUJI OIL HOLDINGS INC., priority 2017, published 2020):
Entries after “also recorded” stand apart in the source; their conditions may differ. Marks after values point to notes of the source that are not given here. *1 amine or outer side, *2 acyl side, *3 side chain or, on linkers, in order; H or OH if unused. Where no end group is shown, it is not given here. [ ]: non-standard residue; d: D form. γGlu = O=C(O)[C@H](CCC(=O)[*:2])N[*:1]

Experiments:
[1] = Sensory evaluation of body taste-imparting effect of γ-glutamyl peptides in umami solution and sweet taste solution (Example 2); conditions: for Initial-middle taste / Middle-after taste: average score of 7 trained panelists, 5 levels, control = 3 points; for body taste of from the initial taste to middle taste (in words) / persistence of the aftertaste (in words) / taste from the middle taste to aftertaste (in words): umami and sweet taste solutions, summary of Table 1
Description: Umami solution containing 0.7% MSG-0.4% NaCl and Sweet taste solution containing 6% sucrose were used as controls (3 points). And, sample solution was prepared by adding each γ-glutamyl peptide to the control. As comparative controls, γ-Glu-Val-Gly disclosed in Patent Document 1 and Patent Document 6 were used. The panelists were 7 trained panelists at Fuji Oil Holdings Inc. And, the panelist evaluated a body taste of from initial taste to middle taste, a thickness of from middle taste to aftertaste, and persistence with the following five levels.
(§1) 5 points: feels much stronger than the control 4 points: feels stronger than the control 3 points: feels the same as the control 2 points: feels a little weaker than the control 1 point: feels much weaker than the control

[2] = Sensory evaluation of body taste-imparting effect on sweet taste solution (Example 3); conditions: Sweet taste solution (6% sucrose), 100 ppm peptide; for Initial-middle taste: average score of eight trained panelists, 5 levels, control = 3 points; for body taste-imparting effect (in words): summary of FIG. 3 and Table 2
Description: Sweet taste solution containing 6% sucrose was used as a control (3 points). And, sample solution was prepared by adding 100 ppm of each γ-glutamyl tripeptide to the control. As comparative controls, γ-Glu-γ-Glu-Val and γ-Glu-γ-Glu-α-Glu-Tyr were used. The panelists were eight trained panelists at Fuji Oil Holdings Inc. And, the panelist evaluated a body taste of from initial taste to middle taste with the following five levels.
as §1

[3] = Sweet taste solution (6% sucrose)
[4] = Umami solution (0.7% MSG-0.4% NaCl)

Row | Substance | Initial-middle taste [2] | body taste-imparting effect (in words) [2] | further results
1 | [γGlu]-Tyr [reference compound] | – | – | Initial-middle taste [1, 3]: 3.5 points; Middle-after taste [1, 3]: 3.9* points; Initial-middle taste [1, 4]: 3.5 points; Middle-after taste [1, 4]: 3.9* points; body taste of from the initial taste to middle taste (in words) [1]: imparted little body taste; persistence of the aftertaste (in words) [1]: persistent of the strong aftertaste; taste from the middle taste to aftertaste (in words) [1]: strong
2 | [γGlu]-Val-Gly [reference compound] | – | – | Initial-middle taste [1, 3]: 3.6 points; Middle-after taste [1, 3]: 4.3* points; Initial-middle taste [1, 4]: 3.6 points; Middle-after taste [1, 4]: 4.8* points; body taste of from the initial taste to middle taste (in words) [1]: imparted little body taste; persistence of the aftertaste (in words) [1]: persistent of the strong aftertaste; taste from the middle taste to aftertaste (in words) [1]: strong
3 | [γGlu]-[γGlu]-Tyr | – | – | Initial-middle taste [1, 3]: 4.0* points; Middle-after taste [1, 3]: 3.7* points; Initial-middle taste [1, 4]: 4.0* points; Middle-after taste [1, 4]: 3.9* points; body taste of from the initial taste to middle taste (in words) [1]: imparted the body taste overall; persistence of the aftertaste (in words) [1]: suppressed
4 | [γGlu]-[γGlu]-Val | 3.1 points | – | –
5 | [γGlu][γGlu]EY | 3.4 points | an effect was also observed | –
6 | [γGlu][γGlu][γGlu]A | 3.4 points | particularly effective | –
7 | [γGlu][γGlu][γGlu]C | 3.0 points | – | –
8 | [γGlu][γGlu][γGlu]D | 3.4 points | particularly effective | –
9 | [γGlu][γGlu][γGlu]E | 3.5* points | particularly effective | –
10 | [γGlu][γGlu][γGlu]F | 3.4 points | particularly effective | –
11 | [γGlu][γGlu][γGlu]G | 3.1 points | – | –
12 | [γGlu][γGlu][γGlu]H | 3.5* points | particularly effective | –
13 | [γGlu][γGlu][γGlu]I | 3.4 points | particularly effective | –
14 | [γGlu][γGlu][γGlu]K | 3.1 points | – | –
15 | [γGlu][γGlu][γGlu]L | 3.3 points | particularly effective | –
16 | [γGlu][γGlu][γGlu]M | 3.0 points | – | –
17 | [γGlu][γGlu][γGlu]N | 3.3 points | – | –
18 | [γGlu][γGlu][γGlu]P | 3.1 points | – | –
19 | [γGlu][γGlu][γGlu]Q | 3.3 points | – | –
20 | [γGlu][γGlu][γGlu]R | 4.1** points | particularly effective | –
21 | [γGlu][γGlu][γGlu]S | 3.4 points | particularly effective | –
22 | [γGlu][γGlu][γGlu]T | 2.9 points | – | –
23 | [γGlu][γGlu][γGlu]V | 3.4 points | particularly effective; also recorded: superior to γ-Glu-γ-Glu-Val | –
24 | [γGlu][γGlu][γGlu]W | 3.1 points | – | –
25 | [γGlu][γGlu][γGlu]Y | 4.3** points | particularly effective | Initial-middle taste [1, 3]: 4.3* points; Middle-after taste [1, 3]: 4.3* points; Initial-middle taste [1, 4]: 4.1* points; Middle-after taste [1, 4]: 4.0* points; body taste of from the initial taste to middle taste (in words) [1]: imparted the body taste overall; persistence of the aftertaste (in words) [1]: suppressed
26 | [γGlu][γGlu][γGlu][γGlu]Y | – | – | Initial-middle taste [1, 3]: 3.9* points; Middle-after taste [1, 3]: 3.6 points; Initial-middle taste [1, 4]: 3.9* points; Middle-after taste [1, 4]: 3.7 points; body taste of from the initial taste to middle taste (in words) [1]: sufficiently imparted a body taste
